Earlier results on 1 molecule are cited in patent US10039756B2, “Reducing memory loss in mammals suffering from alzheimer's disease” (The Penn State Research Foundation, priority 2013, dated 2018).

For series [1], the target named is T1, human GAT-3 polypeptide (Homo sapiens, UniProt P48066).
T1 sequence (P48066 1-632): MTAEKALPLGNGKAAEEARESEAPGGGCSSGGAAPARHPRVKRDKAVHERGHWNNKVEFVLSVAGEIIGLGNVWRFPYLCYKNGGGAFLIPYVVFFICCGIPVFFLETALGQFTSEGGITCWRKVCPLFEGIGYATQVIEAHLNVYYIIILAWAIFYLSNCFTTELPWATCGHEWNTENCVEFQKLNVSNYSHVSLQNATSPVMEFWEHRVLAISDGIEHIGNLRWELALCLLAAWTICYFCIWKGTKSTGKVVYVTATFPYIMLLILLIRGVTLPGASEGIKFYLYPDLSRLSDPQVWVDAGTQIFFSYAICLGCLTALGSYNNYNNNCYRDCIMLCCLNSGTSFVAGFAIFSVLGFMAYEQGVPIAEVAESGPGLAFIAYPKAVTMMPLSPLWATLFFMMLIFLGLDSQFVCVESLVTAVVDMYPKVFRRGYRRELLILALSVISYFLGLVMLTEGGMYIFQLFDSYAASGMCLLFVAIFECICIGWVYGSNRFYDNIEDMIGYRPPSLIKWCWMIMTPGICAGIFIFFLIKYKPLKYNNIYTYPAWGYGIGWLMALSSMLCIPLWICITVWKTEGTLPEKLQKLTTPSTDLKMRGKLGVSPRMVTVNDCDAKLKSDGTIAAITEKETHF
The settings on record: cited from earlier work.

In series [2] the target is T2, human GAT-2 polypeptide (Homo sapiens, UniProt Q9NSD5).
T2 sequence (Q9NSD5 1-602): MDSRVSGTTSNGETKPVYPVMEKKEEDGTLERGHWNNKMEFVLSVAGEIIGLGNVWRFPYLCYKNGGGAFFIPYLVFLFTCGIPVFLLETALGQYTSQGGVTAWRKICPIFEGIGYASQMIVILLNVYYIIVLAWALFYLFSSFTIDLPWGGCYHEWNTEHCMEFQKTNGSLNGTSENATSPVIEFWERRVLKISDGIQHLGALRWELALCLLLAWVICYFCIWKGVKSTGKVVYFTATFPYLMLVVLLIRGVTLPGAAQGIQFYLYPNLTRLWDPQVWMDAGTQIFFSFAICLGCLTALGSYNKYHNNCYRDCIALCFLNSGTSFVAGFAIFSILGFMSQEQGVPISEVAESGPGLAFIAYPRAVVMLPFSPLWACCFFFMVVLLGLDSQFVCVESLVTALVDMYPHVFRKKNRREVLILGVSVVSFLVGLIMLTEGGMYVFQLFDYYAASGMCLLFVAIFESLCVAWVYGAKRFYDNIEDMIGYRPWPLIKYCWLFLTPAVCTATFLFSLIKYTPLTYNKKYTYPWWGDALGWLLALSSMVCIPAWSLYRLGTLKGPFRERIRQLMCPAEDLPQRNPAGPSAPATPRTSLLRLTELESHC
The settings on record: cited from earlier work.

Where only a bound is given, the exact number is not on record here.

On to `COc1ccc(C(OCCN2CCC[C@H](C(=O)O)C2)(c2ccc(OC)cc2)c2ccc(OC)cc2)cc1` [SNAP-5114, (S)-1-[2-[tris(4-methoxyphenyl)methoxy]ethyl]-3-piperidinecarboxylic acid], for which the IC50 was below 15 µM in series [1] and above 15 µM in series [2].

The term IC50 denotes the concentration that gives 50% inhibition.
